Laboratory results published in ChEMBL document CHEMBL1201862, “PubChem BioAssay data set” (2004).
The source made the active and inactive calls.

Assays:
[1] = molecular target: Glyceraldehyde-3-phosphate dehydrogenase (Homo sapiens, UniProt P04406)
[2] = molecular target: T1, Alkaline phosphatase, tissue-nonspecific isozyme (Homo sapiens, UniProt P05186); test: human TNAP enzyme inhibitors, SAR follow-up, biochemical, luminescent, dose response (AID 1056)
T1 sequence (P05186 whole entry): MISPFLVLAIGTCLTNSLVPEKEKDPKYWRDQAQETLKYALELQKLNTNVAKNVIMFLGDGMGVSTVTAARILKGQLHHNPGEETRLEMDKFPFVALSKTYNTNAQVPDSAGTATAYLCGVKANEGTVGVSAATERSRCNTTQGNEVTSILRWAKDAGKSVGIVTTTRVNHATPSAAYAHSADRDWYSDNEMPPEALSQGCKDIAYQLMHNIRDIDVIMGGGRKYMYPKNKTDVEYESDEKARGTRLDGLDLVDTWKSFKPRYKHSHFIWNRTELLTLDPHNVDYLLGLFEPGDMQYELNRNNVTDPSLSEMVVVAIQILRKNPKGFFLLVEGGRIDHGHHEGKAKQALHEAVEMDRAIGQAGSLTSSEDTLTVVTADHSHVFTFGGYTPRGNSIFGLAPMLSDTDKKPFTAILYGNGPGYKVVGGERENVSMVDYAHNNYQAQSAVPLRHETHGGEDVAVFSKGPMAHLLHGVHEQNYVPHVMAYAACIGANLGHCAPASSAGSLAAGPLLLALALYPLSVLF

Cytochrome P450 2D6 = Cytochrome P450 2D6 (Homo sapiens, UniProt P10635);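 further: CYP2D6 member of a cytochrome P450 panel assay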
Chain of Cytochrome P450 2D6 (P10635 whole entry): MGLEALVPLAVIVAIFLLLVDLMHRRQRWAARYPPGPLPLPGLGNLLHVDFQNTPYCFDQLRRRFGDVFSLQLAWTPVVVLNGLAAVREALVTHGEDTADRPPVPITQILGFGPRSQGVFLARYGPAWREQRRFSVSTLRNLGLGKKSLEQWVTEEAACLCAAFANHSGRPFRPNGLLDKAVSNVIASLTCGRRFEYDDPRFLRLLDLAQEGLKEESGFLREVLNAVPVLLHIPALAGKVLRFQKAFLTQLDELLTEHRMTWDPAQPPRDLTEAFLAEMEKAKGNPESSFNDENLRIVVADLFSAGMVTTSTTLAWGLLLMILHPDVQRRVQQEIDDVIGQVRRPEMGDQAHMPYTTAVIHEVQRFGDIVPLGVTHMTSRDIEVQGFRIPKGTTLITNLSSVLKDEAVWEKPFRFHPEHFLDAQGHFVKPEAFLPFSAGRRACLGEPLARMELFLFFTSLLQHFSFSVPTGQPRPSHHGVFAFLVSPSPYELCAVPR

Cytochrome P450 1A2 = molecular target: T2, Cytochrome P450 1A2 (Homo sapiens, UniProt P05177);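 further: PubChem cytochrome P450 panel assay, CYP1A2 panel member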
T2 sequence (P05177 whole entry): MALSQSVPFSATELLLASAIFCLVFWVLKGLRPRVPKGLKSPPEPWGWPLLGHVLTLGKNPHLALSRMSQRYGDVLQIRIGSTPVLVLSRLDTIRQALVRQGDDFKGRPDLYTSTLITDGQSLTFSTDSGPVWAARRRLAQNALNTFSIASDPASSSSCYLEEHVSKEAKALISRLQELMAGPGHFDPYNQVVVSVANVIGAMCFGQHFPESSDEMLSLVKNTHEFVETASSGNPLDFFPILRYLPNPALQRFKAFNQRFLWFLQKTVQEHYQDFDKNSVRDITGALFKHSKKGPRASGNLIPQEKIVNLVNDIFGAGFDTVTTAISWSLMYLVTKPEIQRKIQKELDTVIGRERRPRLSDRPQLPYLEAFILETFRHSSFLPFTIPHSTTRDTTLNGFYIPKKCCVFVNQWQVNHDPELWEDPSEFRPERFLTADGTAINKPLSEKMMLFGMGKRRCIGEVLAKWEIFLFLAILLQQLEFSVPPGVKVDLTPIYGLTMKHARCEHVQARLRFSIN

Cytochrome P450 3A4 = Cytochrome P450 3A4 (Homo sapiens, UniProt P08684);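 further: CYP3A4 tested as one member of a cytochrome P450 panel screen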
Chain of Cytochrome P450 3A4 (P08684 whole entry): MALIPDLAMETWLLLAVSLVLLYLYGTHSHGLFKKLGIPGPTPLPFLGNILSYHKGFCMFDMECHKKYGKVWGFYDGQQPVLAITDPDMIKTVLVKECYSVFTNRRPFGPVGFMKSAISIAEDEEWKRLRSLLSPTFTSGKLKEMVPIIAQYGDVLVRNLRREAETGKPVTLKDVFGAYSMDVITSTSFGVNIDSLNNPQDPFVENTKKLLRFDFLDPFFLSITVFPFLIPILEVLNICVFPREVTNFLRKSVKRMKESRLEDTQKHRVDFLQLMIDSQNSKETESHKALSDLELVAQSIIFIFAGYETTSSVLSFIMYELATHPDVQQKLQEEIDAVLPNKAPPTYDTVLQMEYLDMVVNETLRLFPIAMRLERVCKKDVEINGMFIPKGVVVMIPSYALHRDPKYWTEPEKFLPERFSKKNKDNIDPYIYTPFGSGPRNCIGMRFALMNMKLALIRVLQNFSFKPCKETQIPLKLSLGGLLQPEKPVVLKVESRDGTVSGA

[3] = molecular target: Glucose-6-phosphate 1-dehydrogenase (Homo sapiens, UniProt P11413); test: human G6PD enzyme inhibitors, dose response, selectivity assay for P. falciparum G6PD inhibitor project, biochemical, fluorescence (AID 504792); type: functional
Chain of Glucose-6-phosphate 1-dehydrogenase (P11413 whole entry): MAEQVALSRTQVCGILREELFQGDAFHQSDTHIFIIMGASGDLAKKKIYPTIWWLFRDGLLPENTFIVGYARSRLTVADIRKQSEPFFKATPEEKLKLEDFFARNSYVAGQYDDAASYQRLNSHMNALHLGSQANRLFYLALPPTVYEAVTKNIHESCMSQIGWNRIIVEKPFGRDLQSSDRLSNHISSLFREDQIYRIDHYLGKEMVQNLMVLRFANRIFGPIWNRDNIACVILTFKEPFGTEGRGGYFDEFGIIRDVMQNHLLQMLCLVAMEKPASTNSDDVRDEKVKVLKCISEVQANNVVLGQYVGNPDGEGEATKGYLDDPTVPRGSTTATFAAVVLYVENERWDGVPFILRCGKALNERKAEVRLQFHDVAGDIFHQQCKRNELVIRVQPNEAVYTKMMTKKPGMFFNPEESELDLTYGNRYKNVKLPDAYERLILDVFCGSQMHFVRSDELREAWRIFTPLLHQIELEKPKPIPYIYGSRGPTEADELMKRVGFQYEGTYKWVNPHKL

[4] = Luminescence Cell-Based Dose Retest to Confirm Inhibitors of Cancer Stem Cells. [Related pubchem assays (depositor defined):AID2717, AID2721]; type: functional; conditions: Homo sapiens
Protein Wnt-3a = Protein Wnt-3a (Mus musculus, UniProt P27467); test: Wnt3a-driven reporter signaling inhibition, dose response, selectivity assay for Gli-SUFU antagonist project, Wnt-LIGHT cells, luminescence (AID 651570); type: functional; conditions: read-out: IC50_Mean;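 further: Wnt-LIGHT reporter cells stimulated with conditioned medium from Wnt3a-producing cells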
Chain of Protein Wnt-3a (P27467 whole entry): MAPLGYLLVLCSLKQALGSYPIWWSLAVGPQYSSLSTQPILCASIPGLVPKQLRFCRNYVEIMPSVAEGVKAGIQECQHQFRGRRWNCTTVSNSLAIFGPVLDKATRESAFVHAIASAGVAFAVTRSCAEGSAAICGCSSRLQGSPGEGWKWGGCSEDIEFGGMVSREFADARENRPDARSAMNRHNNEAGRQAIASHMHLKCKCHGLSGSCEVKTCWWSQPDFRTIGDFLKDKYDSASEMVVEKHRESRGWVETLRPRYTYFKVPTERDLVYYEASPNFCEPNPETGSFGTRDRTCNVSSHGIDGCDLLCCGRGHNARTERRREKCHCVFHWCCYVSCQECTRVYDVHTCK

HEK293 = test: inhibitors of LMP1-driven NF-kB reporter, dose response, cell-based, HEK293, luciferase, cherry-pick (AID 588343); type: functional; conditions: Homo sapiens
[5] = inhibitors of intracellular T. cruzi replication, confirmation, NIH3T3 host cells, beta-gal luminescence (AID 2044); type: functional, cell-based;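 further: intracellular parasites grown in NIH/3T3 mouse fibroblasts as host cells; luminescent beta-galactosidase reporter signal from transgenic T. cruzi replicating inside host cells; inhibitors lower the luminescence signal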
[6] = cytotoxicity toward NIH3T3 fibroblasts, dose response, counter-screen, cell-based, ATP luminescence, mouse fibroblasts (AID 2010); type: functional;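 further: cells exposed to compound for about 90 hours before reading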
[7] = Shn3 3'UTR reporter inhibitors, dose response, cell-based, Clone20 osteoblasts, firefly luciferase, cherry-picked (AID 624132); type: functional;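 further: firefly luciferase luminescence from reporter carrying the Shn3 3'UTR in osteoblasts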
[8] = HepG2 cell cytotoxicity, dose response, cytotoxicity control for Shn3 inhibitor project, CellTiter-Glo, cherry-picked (AID 624134); type: functional, cell-based
[9] = control 3'UTR Renilla luciferase suppression, dose response, counter-screen for Shn3 inhibitor project, cell-based, Clone20-Shn3RL, cherry-picked (AID 624133); type: functional
Cysteine protease ATG4B = molecular target: T3, Cysteine protease ATG4B (Homo sapiens, UniProt Q9Y4P1); type: functional;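 further: Fluorescence-based dose-response confirmation assay measuring inhibition of ATG4B activity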
T3 sequence (Q9Y4P1 whole entry): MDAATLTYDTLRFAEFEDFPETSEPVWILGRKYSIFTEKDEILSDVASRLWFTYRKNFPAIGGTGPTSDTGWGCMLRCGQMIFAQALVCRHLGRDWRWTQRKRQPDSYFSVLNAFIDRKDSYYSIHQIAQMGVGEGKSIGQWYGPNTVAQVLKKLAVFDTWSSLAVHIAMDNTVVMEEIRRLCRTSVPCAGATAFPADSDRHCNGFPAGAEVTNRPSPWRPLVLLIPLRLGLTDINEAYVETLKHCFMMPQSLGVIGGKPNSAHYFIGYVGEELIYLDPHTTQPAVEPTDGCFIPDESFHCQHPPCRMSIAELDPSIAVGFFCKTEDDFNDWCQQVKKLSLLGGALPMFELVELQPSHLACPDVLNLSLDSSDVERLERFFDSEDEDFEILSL

Phospholipase A2 = Phospholipase A2 (Homo sapiens, UniProt P04054); type: functional;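 further: confirmatory dose-response counterscreen on phospholipase A2, testing hits that came from an ultra-high-throughput screen for ATG4B inhibitors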
Chain of Phospholipase A2 (P04054 whole entry): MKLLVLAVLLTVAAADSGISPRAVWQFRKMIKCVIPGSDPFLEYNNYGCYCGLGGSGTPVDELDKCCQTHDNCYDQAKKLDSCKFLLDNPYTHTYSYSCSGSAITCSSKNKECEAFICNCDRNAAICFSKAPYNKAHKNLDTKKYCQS

[10] = molecular target: T4, High affinity choline transporter 1 (Homo sapiens, UniProt Q9GZV3); test: CHT inhibitors, dose response, cell-based, 5-point CRC, membrane potential dye (AID 504840); type: functional
T4 sequence (Q9GZV3 whole entry): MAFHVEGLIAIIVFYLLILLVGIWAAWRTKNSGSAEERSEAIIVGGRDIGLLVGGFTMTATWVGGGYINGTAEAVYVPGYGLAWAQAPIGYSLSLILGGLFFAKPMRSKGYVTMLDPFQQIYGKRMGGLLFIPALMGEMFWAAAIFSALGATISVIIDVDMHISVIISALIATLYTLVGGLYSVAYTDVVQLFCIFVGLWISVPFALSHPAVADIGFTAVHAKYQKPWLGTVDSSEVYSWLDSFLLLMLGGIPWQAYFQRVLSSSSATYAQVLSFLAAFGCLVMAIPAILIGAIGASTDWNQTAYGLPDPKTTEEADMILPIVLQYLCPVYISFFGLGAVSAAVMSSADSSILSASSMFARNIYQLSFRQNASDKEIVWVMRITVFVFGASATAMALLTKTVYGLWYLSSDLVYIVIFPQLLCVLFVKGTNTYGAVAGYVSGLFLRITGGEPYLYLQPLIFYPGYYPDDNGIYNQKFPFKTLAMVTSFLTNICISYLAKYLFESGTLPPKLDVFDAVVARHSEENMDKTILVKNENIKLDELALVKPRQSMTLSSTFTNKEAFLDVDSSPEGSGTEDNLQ

Troponin, cardiac muscle = Troponin, cardiac muscle (Homo sapiens, UniProt P19429+P45379+P63316); test: Fluorescence-based biochemical high throughput dose response assay for activators of the calcium sensitivity of cardiac Regulated Thin Filaments (RTF). [Related pubchem assays (depositor defined):AID493008, AID493018, AID504382, AID504383]; type: protein-complex assay
[11] = molecular target: FAD-linked sulfhydryl oxidase ALR (Homo sapiens, UniProt P55789); test: inhibitors of human ALR sulfhydryl oxidase, dose response, biochemical, H2O2 detection, luminescence, cherry-pick (AID 493248)
Chain of FAD-linked sulfhydryl oxidase ALR (P55789 whole entry): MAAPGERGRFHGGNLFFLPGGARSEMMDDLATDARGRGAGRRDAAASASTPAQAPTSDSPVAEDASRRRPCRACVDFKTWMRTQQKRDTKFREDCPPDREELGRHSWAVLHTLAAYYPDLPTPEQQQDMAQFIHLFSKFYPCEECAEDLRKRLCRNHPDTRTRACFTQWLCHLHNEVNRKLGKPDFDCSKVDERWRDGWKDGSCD

[12] = HEp-2 cell cytotoxicity, dose response, cytotoxicity control for RSV inhibitor project, HTS (AID 2410); type: functional; conditions: human respiratory syncytial virus
INS1 = test: beta cell apoptosis inhibitors, cytokine rescue, dose response, luminescence, retest (AID 449756); type: functional, cell-based; conditions: Rattus norvegicus;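 further: cell death triggered by IL-1 beta plus TNF-alpha plus IFN-gamma mixture; protective hits raise ATP signal compared with cytokine alone wells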
[13] = molecular target: T5, Heat shock factor protein 1 (Mus musculus, UniProt P38532); test: HSF1 potentiators in luciferase reporter cells, confirmation, cell-based, NIH3T3, luminescence, dose retest (AID 435004); type: functional;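 further: stress induced by proteasome inhibitor MG132 added 30 min after compound; luciferase reporter driven by HSF1 response element in NIH3T3 cells; actives raise luminescence as potentiators of the MG132 stress response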
T5 sequence (P38532 whole entry): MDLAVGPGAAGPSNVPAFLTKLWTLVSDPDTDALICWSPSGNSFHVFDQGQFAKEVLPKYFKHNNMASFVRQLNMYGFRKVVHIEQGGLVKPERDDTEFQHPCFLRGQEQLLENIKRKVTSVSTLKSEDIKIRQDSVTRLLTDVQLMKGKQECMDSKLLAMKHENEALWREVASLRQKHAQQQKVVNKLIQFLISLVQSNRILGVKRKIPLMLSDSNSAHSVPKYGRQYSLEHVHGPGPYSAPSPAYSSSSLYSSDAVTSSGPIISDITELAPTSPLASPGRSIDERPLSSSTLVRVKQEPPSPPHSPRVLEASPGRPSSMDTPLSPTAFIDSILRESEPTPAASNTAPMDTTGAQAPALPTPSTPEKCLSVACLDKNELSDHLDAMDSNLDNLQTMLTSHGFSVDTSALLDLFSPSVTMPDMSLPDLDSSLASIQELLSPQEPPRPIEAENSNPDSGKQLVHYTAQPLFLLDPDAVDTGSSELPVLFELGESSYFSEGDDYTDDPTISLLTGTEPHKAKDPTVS

Cytochrome P450 2C19 = Cytochrome P450 2C19 (Homo sapiens, UniProt P33261); test: Cytochrome panel assay with activity outcomes. Panel member name: p450-cyp2c19 Compounds with AC50 equal or less than 10 uM are considered active; type: functional; conditions: read-out: AC50
Chain of Cytochrome P450 2C19 (P33261 whole entry): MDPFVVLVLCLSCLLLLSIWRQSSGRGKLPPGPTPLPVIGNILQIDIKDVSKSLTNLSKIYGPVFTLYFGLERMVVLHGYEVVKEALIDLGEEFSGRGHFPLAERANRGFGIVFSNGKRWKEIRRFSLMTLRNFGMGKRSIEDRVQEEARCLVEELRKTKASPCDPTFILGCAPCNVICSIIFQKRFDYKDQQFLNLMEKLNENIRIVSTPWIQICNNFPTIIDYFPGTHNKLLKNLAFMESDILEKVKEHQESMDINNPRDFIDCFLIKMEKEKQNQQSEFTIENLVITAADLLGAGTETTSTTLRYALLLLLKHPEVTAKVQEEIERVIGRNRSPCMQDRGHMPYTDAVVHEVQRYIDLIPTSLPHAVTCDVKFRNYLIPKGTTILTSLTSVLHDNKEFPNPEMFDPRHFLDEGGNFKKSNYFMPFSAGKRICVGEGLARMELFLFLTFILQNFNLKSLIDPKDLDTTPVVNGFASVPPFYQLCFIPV

Cytochrome P450 2C9 = Cytochrome P450 2C9 (Homo sapiens, UniProt P11712)
Chain of Cytochrome P450 2C9 (P11712 whole entry): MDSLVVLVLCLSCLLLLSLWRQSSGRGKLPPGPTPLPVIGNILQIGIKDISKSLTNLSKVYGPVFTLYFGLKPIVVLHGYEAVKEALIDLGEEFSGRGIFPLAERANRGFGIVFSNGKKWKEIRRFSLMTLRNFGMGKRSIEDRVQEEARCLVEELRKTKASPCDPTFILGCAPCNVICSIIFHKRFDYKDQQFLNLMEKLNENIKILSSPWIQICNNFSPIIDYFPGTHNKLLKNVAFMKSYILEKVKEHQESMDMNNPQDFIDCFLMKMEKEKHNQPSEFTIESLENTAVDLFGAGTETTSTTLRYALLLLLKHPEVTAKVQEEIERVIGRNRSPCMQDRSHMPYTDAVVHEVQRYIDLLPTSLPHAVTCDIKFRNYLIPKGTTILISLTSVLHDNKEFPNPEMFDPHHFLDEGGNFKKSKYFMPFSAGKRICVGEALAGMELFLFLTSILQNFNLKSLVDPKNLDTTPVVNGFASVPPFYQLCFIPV

Chain of Glyceraldehyde-3-phosphate dehydrogenase (P04406 whole entry): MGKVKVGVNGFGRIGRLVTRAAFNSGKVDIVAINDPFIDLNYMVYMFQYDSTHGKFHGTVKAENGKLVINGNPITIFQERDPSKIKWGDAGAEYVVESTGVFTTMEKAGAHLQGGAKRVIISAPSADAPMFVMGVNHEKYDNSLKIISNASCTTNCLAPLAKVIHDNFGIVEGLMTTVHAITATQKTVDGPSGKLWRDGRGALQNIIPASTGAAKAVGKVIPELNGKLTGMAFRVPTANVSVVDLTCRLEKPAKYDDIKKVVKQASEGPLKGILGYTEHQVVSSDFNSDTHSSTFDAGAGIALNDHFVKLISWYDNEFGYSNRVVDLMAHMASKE

## COc1ccc(OC)c(NCc2cnc3ccccc3c2)c1
[1]
  IC50: > 100 µM (not active)
[2]
  IC50: > 100 µM (inactive)

## COC(=O)C(Cc1ccc(OC(=O)c2ccc(Cl)cc2)cc1)N1Cc2ccccc2C1=O (stereo not drawn)
Cytochrome P450 2D6
  AC50: 5.01 µM (inconclusive)
Cytochrome P450 1A2
  AC50: 31.6 µM (inconclusive)
Cytochrome P450 3A4
  AC50: inconclusive

## COc1ccc(C)cc1S(=O)(=O)Nc1ccc2ccccc2c1
[1]
  IC50: > 100 µM (not active)
[2]
  IC50: > 100 µM (inactive)

## Cc1ccc(/C=C/C(=O)NCC2COc3ccccc3O2)o1 (stereo not drawn)
[3]
  IC50: > 80 µM (inactive)
[4]
  AC50: 33.1 µM (active)

## COc1cccc(/C=C/c2ccncc2)c1OC
Protein Wnt-3a
  IC50: 1.7 µM (active)

## CCN1CCN(Cc2ccc(NC(=O)c3ccc(C)c(NC(=O)c4nccnc4N)c3)cc2C(F)(F)F)CC1
HEK293
  AC50: 0.528 µM (active)

## CC(C)(C)c1ccc(CN2C3=NCCCN3c3ccccc32)cc1
[5]
  EC50: 0.387 µM (active)
[6]
  EC50: > 60 µM (not active)
[7]
  AC50: 0.836 µM (active)
[8]
  AC50: 21.8 µM (active)
[9]
  AC50: 0.978 µM (active)
Protein Wnt-3a
  IC50: 2.94 µM (active)

## COC(=O)c1ccc(C(=O)N2CCCC(Nc3ccc(C(C)C)cc3)C2)nc1 (stereo not drawn)
Cysteine protease ATG4B
  IC50: 17.9 µM (active)
Phospholipase A2
  IC50: 12.3 µM (active)

## Cc1ccc(-c2csc(NC(=O)c3ccccc3F)c2C(=O)O)cc1
[3]
  IC50: > 80 µM (inactive)
[10]
  IC50: 11.5 µM (active)

## Cc1ccsc1-c1nc(CSCC(=O)N2CCN(c3ccccc3)CC2)c(C)o1
HEK293
  AC50: 225 µM (active)

## COc1c(O)cccc1-c1nnn(CCC(=O)OCC(=O)c2ccccc2)n1
Troponin, cardiac muscle
  EC50: > 71.5 µM (inactive)

## CCN(CC)c1ccc(/C=C2\SC(=N)NC2=O)cc1
Troponin, cardiac muscle
  EC50: 6.01 µM (active)
[11]
  AC50: 2.74 µM (active)

## CN1C(=O)/C(=C/C=C2\SCCN2C)OC1=S
Troponin, cardiac muscle
  EC50: 7 µM (active)

## COc1ccc2cc(-c3cc(C(=O)O)c4ccccc4n3)ccc2c1
[12]
  CC50: 22.5 µM (active)
HEK293
  AC50: 1.05 µM (active)
cells
  IC50: 40.9 µM (active)

## O=C(c1ccco1)N1CCC2(CC1)CCN(c1ccc(-c3ccccc3)cc1)CC2
Cytochrome P450 3A4
  AC50: inconclusive

## O=C(c1cnc(N2CCN(c3ccccn3)CC2)c2ccccc12)N1CCN(c2cccc(Cl)c2)CC1
INS1
  AC50: 6.14 µM (active)
[7]
  AC50: 1.99 µM (active)
[8]
  AC50: 59.9 µM (active)
[9]
  AC50: 3.68 µM (active)
Protein Wnt-3a
  IC50: 7.02 µM (active)

## COC(=O)C(C)N(C(=O)c1ccc(C(=O)c2ccccc2)cc1)c1c(C)cccc1C (stereo not drawn)
[13]
  EC50: > 260 µM (inactive)
Cysteine protease ATG4B
  IC50: 9.78 µM (active)
Phospholipase A2
  IC50: 8.13 µM (active)

## O=C1CCC[C@@H]2[C@@H](Cc3ccccc3)[C@H](N3CCN(c4ccccc4)CC3)C[C@@H]3CCN1[C@@H]32
[3]
  IC50: > 80 µM (inactive)

## Cn1nc(NC(=O)C2CCC2C(=O)O)c2c(F)cccc21 (stereo not drawn)
Troponin, cardiac muscle
  EC50: > 71.5 µM (inactive)

## Cc1ccc(-c2c(C(=O)N/N=C/c3ccc(C)o3)nnn2-c2nonc2N)cc1
[3]
  IC50: 12.5 µM (active)

## Cc1ccc(C(=O)O/N=C2\CCCc3ccccc32)cc1
Cysteine protease ATG4B
  IC50: 8.65 µM (active)
Phospholipase A2
  IC50: 2.83 µM (active)

## O=C(CCCN1CCN(c2ccccn2)CC1)c1ccc(F)cc1 [AZAPERONE]
Cytochrome P450 2C19
  AC50: 15.8 µM (inconclusive)
Cytochrome P450 2D6
  AC50: 7.94 µM (inconclusive)
Cytochrome P450 1A2
  AC50: 15.8 µM (inconclusive)
Cytochrome P450 2C9
  AC50: 12.6 µM (inconclusive)
Cytochrome P450 3A4
  AC50: inconclusive
